ChEMBL document CHEMBL1201862, “PubChem BioAssay data set” (2004)
Activity calls are given as the source filed them.

Columns and labels:
[1] = NIH-3T3 fibroblast cytotoxicity, dose response, cytotoxicity control, cell-based, fluorescence, Alamar Blue, secondary assay (AID 2327); format: functional;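 also: NIH-3T3 mouse fibroblasts cultured with fluconazole at 8 µg/mL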
Exodeoxyribonuclease V = biological target: T1, Exodeoxyribonuclease V (Escherichia coli (strain K12), UniProt P04993+P07648+P08394); test: E. coli RecBCD inhibitors, dose response, counter-screen for AddAB inhibitor project, absorbance, V66 E. coli, mutant T4 phage (AID 492957); format: functional, cell-based, Escherichia coli str. K-12 substr. MG1655
T1 sequence (P04993 whole entry): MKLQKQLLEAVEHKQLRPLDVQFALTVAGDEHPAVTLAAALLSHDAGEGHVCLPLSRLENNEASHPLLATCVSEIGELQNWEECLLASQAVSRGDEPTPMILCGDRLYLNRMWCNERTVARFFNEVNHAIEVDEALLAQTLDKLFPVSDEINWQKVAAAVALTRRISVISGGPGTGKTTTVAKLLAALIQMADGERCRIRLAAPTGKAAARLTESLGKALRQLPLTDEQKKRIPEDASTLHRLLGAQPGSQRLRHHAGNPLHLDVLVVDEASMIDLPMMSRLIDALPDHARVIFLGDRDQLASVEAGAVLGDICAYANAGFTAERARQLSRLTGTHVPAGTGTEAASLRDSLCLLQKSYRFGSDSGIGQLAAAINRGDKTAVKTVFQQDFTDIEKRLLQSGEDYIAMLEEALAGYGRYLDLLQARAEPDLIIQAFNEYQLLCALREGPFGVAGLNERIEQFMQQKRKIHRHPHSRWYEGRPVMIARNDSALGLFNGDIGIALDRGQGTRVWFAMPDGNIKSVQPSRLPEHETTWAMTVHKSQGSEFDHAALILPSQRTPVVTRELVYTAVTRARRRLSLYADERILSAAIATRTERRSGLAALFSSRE
T1 sequence (P07648 whole entry): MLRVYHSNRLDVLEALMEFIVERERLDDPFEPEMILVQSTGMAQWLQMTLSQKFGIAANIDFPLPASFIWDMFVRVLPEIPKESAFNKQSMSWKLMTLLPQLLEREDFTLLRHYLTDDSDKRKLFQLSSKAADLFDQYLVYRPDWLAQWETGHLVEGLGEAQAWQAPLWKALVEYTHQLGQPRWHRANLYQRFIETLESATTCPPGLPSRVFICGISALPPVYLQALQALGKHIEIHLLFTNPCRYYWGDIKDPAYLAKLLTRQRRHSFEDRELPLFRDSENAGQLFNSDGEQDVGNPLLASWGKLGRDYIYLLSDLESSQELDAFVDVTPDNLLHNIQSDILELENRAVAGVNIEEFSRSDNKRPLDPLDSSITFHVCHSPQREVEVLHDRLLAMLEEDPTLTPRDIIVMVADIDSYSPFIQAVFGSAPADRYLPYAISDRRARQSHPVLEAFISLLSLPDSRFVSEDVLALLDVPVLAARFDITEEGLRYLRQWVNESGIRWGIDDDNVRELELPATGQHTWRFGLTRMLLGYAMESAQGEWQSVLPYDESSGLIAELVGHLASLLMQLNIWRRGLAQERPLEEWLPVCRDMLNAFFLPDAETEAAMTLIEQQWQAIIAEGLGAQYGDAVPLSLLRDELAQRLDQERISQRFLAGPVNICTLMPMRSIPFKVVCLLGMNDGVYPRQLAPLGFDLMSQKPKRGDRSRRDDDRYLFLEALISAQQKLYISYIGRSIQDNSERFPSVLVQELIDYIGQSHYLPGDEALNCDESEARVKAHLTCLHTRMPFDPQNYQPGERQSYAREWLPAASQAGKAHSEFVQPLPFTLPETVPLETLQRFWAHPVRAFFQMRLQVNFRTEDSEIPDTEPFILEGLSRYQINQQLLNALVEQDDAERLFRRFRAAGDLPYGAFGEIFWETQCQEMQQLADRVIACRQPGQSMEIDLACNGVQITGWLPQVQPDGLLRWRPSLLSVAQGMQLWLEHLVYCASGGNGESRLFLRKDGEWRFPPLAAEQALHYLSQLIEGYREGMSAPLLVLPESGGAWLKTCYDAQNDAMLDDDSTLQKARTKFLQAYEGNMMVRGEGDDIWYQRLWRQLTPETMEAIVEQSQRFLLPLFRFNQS
T1 sequence (P08394 whole entry): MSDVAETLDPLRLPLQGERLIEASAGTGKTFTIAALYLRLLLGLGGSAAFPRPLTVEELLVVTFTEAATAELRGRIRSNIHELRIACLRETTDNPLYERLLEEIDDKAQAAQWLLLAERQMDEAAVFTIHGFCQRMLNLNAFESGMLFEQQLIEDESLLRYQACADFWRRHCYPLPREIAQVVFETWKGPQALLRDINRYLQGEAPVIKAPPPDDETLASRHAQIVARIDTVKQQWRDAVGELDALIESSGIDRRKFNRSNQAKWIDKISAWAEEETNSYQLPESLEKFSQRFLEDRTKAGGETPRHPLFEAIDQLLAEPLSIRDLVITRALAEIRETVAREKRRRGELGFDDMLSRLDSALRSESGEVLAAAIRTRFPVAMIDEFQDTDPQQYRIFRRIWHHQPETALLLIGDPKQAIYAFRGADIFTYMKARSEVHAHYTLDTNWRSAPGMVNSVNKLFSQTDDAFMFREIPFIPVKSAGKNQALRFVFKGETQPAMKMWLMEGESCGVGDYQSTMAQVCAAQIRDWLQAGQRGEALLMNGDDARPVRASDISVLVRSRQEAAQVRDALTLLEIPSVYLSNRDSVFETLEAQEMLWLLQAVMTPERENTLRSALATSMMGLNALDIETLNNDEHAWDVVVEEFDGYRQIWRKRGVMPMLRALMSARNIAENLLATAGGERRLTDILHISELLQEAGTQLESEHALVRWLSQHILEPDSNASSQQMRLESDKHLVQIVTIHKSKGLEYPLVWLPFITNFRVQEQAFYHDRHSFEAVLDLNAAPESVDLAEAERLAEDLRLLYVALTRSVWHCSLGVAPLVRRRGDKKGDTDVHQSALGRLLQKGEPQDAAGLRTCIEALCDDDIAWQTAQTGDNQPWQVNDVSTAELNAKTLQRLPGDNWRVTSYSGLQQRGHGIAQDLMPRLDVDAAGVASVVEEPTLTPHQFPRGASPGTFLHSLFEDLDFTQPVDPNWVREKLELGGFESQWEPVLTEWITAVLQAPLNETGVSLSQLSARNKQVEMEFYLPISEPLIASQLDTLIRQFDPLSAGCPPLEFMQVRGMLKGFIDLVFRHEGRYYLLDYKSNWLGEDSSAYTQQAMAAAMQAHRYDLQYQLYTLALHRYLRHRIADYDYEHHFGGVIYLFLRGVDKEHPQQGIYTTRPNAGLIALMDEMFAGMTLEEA

[2] = Counterscreen for AddAB inhibitors: absorbance-based bacterial cell-based high throughput dose response assay for inhibitors of bacterial viability. [Related pubchem assays (depositor defined):AID435030, AID449728, AID449731, AID488942, AID488955, AID488956]; format: functional
Albumin = Albumin (Bos taurus, UniProt P02769); test: Counterscreen for inhibitors of T-cell receptor (TCR)-CD3 interaction: Fluorescence-based biochemical high throughput dose response assay to identify inhibitors of T-cell receptor (TCR)-CD3 interaction using a TAMRA-labeled BSA probe.; format: functional
Chain of Albumin (P02769 whole entry): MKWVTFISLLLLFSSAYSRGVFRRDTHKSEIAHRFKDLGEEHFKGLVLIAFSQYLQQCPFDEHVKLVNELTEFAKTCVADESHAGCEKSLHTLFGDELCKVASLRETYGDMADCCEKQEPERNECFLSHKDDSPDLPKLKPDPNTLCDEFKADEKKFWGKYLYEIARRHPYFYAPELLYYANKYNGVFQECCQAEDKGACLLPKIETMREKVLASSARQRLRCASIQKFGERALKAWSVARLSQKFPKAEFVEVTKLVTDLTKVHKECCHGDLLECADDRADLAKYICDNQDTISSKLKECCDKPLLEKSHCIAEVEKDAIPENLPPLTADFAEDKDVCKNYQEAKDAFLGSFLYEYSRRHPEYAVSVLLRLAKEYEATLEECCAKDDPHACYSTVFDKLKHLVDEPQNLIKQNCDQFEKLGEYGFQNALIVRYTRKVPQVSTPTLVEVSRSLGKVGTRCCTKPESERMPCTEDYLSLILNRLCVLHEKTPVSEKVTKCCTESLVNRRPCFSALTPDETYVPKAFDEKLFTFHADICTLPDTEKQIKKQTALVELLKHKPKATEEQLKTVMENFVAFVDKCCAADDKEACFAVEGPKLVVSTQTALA

[3] = insulin promoter down-regulators in MIN6 cells, imaging, high-content screening, mouse beta cells (AID 1628); format: functional
[4] = cytotoxicity in MIN6 insulinoma cells, dose response, cytotoxicity control, cell-based, mouse insulinoma (AID 2122); format: functional;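 also: confirmatory high-throughput counterscreen run to flag cytotoxic compounds; mouse MIN-6 beta cells carrying an insulin promoter eGFP reporter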
[5] = biological target: T2, Short transient receptor potential channel 4 (Mus musculus, UniProt Q9QUQ5); test: mouse TRPC4 channel activators, dose response, cell-based, HEK293 TRPC4/mu-opioid, Fluo-4 calcium (AID 434937); format: functional
T2 sequence (Q9QUQ5 whole entry): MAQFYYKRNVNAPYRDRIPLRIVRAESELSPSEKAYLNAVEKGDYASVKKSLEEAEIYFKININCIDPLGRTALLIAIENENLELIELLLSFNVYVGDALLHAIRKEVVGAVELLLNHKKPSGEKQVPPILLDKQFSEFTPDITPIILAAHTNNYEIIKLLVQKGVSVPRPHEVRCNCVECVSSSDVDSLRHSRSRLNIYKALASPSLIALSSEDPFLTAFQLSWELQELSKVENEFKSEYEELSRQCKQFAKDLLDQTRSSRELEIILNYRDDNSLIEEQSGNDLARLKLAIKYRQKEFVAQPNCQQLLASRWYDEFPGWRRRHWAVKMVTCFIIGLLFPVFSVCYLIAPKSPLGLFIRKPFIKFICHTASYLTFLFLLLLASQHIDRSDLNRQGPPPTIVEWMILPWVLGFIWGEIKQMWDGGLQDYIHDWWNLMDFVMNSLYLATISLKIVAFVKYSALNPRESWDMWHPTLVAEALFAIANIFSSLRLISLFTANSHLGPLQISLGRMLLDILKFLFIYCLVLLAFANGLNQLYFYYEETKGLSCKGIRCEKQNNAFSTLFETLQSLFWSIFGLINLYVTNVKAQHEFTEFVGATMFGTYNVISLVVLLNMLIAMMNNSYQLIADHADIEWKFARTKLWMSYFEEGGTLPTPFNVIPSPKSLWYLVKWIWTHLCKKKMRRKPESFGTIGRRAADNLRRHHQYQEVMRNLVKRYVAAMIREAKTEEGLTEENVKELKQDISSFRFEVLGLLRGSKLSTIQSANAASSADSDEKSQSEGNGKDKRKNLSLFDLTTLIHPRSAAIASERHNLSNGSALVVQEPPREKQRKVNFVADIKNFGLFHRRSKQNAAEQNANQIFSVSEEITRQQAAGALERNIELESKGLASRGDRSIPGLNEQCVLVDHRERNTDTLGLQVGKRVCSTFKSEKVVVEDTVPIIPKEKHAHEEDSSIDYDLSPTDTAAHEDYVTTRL

[6] = biological target: T3, Voltage-gated N-type calcium channel alpha-1B subunit/Amyloid beta A4 precursor protein-binding family A member 1 (Homo sapiens, UniProt Q00975+Q02410); format: protein assay
T3 sequence (Q00975 whole entry): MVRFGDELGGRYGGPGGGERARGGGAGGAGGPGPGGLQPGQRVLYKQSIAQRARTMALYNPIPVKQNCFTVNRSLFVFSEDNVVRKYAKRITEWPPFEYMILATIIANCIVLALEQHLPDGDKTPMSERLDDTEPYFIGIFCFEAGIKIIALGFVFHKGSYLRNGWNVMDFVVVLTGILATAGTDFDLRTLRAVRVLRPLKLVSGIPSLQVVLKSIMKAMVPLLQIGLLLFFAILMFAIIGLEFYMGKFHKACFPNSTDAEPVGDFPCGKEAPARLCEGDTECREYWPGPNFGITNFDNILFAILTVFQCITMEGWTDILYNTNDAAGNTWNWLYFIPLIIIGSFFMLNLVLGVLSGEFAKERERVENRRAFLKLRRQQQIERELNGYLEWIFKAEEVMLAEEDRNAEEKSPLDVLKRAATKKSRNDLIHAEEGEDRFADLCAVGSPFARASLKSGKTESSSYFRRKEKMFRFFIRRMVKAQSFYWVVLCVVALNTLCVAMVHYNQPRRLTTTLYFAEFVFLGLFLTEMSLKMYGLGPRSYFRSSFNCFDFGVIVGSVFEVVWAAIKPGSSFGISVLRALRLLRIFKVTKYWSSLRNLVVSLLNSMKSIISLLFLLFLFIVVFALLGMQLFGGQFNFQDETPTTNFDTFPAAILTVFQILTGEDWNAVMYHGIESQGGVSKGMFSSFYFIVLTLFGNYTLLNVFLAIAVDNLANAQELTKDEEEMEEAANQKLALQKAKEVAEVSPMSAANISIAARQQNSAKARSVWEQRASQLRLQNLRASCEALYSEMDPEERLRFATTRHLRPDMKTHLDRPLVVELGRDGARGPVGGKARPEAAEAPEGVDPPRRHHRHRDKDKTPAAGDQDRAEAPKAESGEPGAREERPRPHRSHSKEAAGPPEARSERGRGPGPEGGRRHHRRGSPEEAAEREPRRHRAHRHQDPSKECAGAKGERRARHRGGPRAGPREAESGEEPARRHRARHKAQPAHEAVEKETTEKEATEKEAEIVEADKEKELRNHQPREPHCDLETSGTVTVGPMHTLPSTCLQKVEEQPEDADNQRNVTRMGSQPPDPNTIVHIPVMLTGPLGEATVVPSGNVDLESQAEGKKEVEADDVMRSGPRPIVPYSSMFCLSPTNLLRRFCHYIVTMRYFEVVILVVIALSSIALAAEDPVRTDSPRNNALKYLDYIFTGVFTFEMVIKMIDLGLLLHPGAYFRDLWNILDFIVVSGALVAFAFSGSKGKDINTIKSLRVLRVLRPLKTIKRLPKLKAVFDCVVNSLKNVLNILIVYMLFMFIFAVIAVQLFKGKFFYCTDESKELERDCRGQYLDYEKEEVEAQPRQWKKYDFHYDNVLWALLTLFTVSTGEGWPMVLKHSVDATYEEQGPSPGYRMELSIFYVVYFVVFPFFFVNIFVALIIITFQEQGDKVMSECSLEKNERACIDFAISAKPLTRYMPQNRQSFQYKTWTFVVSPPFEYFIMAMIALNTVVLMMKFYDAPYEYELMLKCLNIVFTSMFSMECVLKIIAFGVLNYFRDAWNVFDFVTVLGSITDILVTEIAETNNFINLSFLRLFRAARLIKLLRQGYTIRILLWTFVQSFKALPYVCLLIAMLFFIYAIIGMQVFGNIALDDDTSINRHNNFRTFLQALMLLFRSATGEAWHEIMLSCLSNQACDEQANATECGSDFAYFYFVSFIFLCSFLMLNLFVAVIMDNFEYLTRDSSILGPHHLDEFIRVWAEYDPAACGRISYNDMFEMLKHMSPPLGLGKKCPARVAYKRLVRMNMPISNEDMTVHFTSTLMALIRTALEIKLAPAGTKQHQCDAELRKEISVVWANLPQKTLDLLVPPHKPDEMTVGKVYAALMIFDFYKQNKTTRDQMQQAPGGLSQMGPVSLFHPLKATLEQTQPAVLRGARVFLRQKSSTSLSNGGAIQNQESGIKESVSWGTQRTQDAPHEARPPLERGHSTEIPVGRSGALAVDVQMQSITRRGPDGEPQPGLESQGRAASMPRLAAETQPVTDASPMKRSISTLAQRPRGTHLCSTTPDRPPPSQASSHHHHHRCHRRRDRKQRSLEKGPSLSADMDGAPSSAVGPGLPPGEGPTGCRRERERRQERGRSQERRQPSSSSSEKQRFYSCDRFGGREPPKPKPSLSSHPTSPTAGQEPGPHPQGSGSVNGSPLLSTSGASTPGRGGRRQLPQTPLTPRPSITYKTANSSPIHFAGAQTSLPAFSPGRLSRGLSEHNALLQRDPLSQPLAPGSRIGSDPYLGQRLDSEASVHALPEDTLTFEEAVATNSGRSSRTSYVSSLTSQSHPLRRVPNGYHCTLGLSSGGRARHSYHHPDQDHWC
T3 sequence (Q02410 whole entry): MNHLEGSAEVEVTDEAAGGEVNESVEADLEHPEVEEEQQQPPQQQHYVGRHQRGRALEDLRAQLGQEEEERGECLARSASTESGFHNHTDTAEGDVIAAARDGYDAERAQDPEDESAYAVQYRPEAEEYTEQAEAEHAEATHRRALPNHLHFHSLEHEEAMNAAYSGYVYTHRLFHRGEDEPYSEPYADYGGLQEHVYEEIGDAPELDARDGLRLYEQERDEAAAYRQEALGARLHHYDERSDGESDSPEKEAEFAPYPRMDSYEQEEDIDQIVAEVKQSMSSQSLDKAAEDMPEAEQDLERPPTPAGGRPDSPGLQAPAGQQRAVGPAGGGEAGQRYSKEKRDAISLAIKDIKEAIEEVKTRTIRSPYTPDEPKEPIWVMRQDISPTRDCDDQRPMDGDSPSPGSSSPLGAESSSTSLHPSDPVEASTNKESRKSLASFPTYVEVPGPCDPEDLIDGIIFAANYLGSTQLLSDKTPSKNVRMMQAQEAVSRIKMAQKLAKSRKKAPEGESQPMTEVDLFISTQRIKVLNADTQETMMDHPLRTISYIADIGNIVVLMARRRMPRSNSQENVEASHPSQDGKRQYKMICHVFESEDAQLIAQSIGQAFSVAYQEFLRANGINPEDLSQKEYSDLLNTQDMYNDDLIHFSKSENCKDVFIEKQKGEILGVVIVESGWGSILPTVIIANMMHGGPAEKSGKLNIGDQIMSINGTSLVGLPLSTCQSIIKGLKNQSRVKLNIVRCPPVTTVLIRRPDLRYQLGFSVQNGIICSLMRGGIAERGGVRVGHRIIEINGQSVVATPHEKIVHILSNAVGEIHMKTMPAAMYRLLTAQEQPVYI

[7] = biological target: T3, Voltage-gated N-type calcium channel alpha-1B subunit/Amyloid beta A4 precursor protein-binding family A member 1; format: protein assay; remark: listed apart in the source
H9c2 = test: cells; format: functional, cell-based; conditions: Rattus norvegicus, H9c2, Myocardium
[8] = HeLa cell cytotoxicity, dose response, cytotoxicity control for MgcRacGAP inhibitor project (AID 624300); format: functional
[9] = biological target: T4, Rac GTPase-activating protein 1 (Homo sapiens, UniProt Q9H0H5); test: MgcRacGAP GTPase-activating activity inhibitors, confirmation, biochemical, ADP Hunter fluorescence, primary and confirmatory (AID 624330); format: functional
T4 sequence (Q9H0H5 whole entry): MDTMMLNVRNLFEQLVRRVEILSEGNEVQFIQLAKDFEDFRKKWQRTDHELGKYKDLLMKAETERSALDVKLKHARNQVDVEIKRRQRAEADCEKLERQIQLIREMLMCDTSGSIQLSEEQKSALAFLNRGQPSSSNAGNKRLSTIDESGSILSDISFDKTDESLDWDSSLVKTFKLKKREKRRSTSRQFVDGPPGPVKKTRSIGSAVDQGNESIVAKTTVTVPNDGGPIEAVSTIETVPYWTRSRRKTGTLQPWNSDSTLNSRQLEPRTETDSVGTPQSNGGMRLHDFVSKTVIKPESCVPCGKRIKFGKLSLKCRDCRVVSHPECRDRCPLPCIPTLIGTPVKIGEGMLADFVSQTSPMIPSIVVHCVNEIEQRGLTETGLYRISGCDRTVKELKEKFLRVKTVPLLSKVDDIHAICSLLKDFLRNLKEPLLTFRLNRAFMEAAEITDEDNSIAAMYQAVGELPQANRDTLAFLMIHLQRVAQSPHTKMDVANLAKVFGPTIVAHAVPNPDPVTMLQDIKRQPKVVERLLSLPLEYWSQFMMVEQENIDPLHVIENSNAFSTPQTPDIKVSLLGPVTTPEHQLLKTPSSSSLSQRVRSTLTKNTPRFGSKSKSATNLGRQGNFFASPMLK

cells [10] = format: functional, cell-based
cells [11] = format: functional, cell-based; remark: listed apart in the source
[12] = Luminescence Cell-Based Dose Retest to Confirm Inhibitors of Cancer Stem Cells. [Related pubchem assays (depositor defined):AID2717, AID2721]; format: functional; conditions: Homo sapiens
INS1 = test: beta cell apoptosis inhibitors, cytokine rescue, dose response, luminescence, retest (AID 449756); format: functional, cell-based; conditions: Rattus norvegicus;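 also: cell death triggered by IL-1 beta plus TNF-alpha plus IFN-gamma mixture; protective hits raise ATP signal compared with cytokine alone wells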
[13] = HEp-2 cell cytotoxicity, dose response, cytotoxicity control for RSV inhibitor project, HTS (AID 2410); format: functional; conditions: human respiratory syncytial virus
cells [14] = test: cells

## COc1ccccc1NC(=O)NNC(=O)c1cc2ccccc2cc1O
[1]
  EC50: > 160 µM (inactive)
Exodeoxyribonuclease V
  IC50: > 119 µM (inactive)
[2]
  IC50: > 119 µM (inactive)
Albumin
  IC50: > 94.1 µM (inactive)

## CCN1CCN(S(=O)(=O)c2cc(OCC(=O)NC3CCCCC3)c(C)cc2Cl)CC1
[3]
  IC50: 2.29 µM (active)
[4]
  IC50: 2.03 µM (active)

## CC1(c2ccc([N+](=O)[O-])cc2)CC(C)(C)N(C(=O)c2ccccc2)c2ccccc21 (stereo not drawn)
[3]
  IC50: 7.17 µM (active)
[4]
  IC50: 7.16 µM (active)

## CCN1CCN(c2ccc(S(=O)(=O)N3CCCCC3)cc2NC(=O)c2cccc(C)c2[N+](=O)[O-])CC1
[5]
  EC50: 2.99 µM (active)

## COc1cc(/C=C/c2nc3ccccc3c(=O)n2-c2ccccc2O)ccc1O
[6]
  IC50: > 56.8 µM (not active)
[7]
  IC50: > 50 µM (inactive)
H9c2
  IC50: 9.09 µM (active)
[8]
  CC50: 94 µM (active)
[9]
  IC50: 40.6 µM (active)

## Cc1cc([N+](=O)[O-])nn1Cc1ccc(C(=O)N/N=C/c2ccc(O)cc2O)cc1
Cells [10]
  EC50: 9.79 µM (active)
Cells [11]
  EC50: > 350 µM (not active)
Exodeoxyribonuclease V
  IC50: > 119 µM (inactive)
[12]
  AC50: 1.71 µM (active)
[2]
  IC50: > 119 µM (inactive)
INS1
  AC50: 1.37 µM (active)

## CC(C)(C)c1cc(O)c(C(C)(C)C)cc1O
[13]
  CC50: > 50 µM (active)
[5]
  EC50: 0.376 µM (active)
Cells [14]
  IC50: 37.2 µM (active)
